The values below come from ChEMBL document CHEMBL4000188, “Synthesis and antimicrobial evaluation of novel analogues of dehydroabietic acid prepared by CH-Activation” (Eur J Med Chem, 2017).

By MIC80 is commonly meant an inhibitory concentration at the 80% level, which refers to growth in some studies and to a panel of isolates in others. Read a high MIC80 as weaker potency.

≈ marks a conversion by molar mass, not a printed value. Calls of active or inactive are those of the source. No cut-off for these calls is given here.

The nature of data set [1]: Solubility of the compound in DMSO. It counts as physicochemical.
The subject of data set [2] is Staphylococcus aureus. Briefly: Anti-bacterial activity against methicillin-resistant Staphylococcus aureus ATCC 43300 measured after 18 hrs. It counts as functional. To be noted: ATCC 43300, 18 h.
The test system of data set [3] is Staphylococcus aureus. As to the kind of experiment: Anti-bacterial activity against methicillin/oxacillin-resistant Staphylococcus aureus ATCC 43300 at 32 ug/ml measured after 18 hrs. It counts as functional.

As for `COc1ccc(C[C@@]2(C(N)=O)CCC[C@]3(C)c4ccc(C(C)C)cc4CC[C@@H]23)cc1`, the solubility result in data set [1] was “Insoluble”.

`CC(C)c1ccc2c(c1)CC[C@H]1[C@](Cc3ccc(C(=O)O)cc3)(C(N)=O)CCC[C@]21C` had an MIC80 in data set [2] of 32 µg/mL (≈ 76.3 µM).

`CN[C@H](CC(C)C)C(=O)N[C@H]1C(=O)N[C@@H](CC(N)=O)C(=O)N[C@H]2C(=O)N[C@H]3C(=O)N[C@H](C(=O)N[C@H](C(=O)O)c4cc(O)cc(O)c4-c4cc3ccc4O)[C@H](O)c3ccc(c(Cl)c3)Oc3cc2cc(c3O[C@@H]2O[C@H](CO)[C@@H](O)[C@H](O)[C@H]2O[C@H]2C[C@](C)(N)[C@H](O)[C@H](C)O2)Oc2ccc(cc2Cl)[C@H]1O` [VANCOMYCIN] returned an MIC80 in data set [2] of 1 µg/mL (≈ 0.69 µM).

Turning to `CC(C)c1ccc2c(c1)CC[C@H]1[C@](Cc3ccc(C(F)(F)F)cc3)(C(=O)O)CCC[C@]21C`, the result in data set [3] was Active.

In the case of `COc1ccc(C[C@@]2(C(=O)O)CCC[C@]3(C)c4ccc(C(C)C)cc4CC[C@@H]23)cc1`, in data set [3], the result was Active.

For `CC(C)c1ccc2c(c1)CC[C@H]1[C@](Cc3ccc(C(F)(F)F)cc3)(C(N)=O)CCC[C@]21C`, the solubility result in data set [1] was “Insoluble”.

As for `Cc1ccc(C[C@@]2(C(=O)O)CCC[C@]3(C)c4ccc(C(C)C)cc4CC[C@@H]23)cc1`, the outcome in data set [3] was Active.

As for `Cc1ccc(C[C@@]2(C(N)=O)CCC[C@]3(C)c4ccc(C(C)C)cc4CC[C@@H]23)cc1`, the solubility result in data set [1] is recorded as “Insoluble”.
